In BindingDB's records for doi:10.1016/j.bmcl.2009.01.068 (Methylgene, 2009) one finds IC50 data, which are given here for one compound.

Assay [1] can be described thus: Inhibition of c-Met-mediated scattering in HGF-stimulated human DU145 cells.
The nature of assay [2]: Inhibition of c-Met-mediated migration in HGF-stimulated human A549 cells by wound healing assay.

Regarding `CCn1cnc(-c2cc3nccc(Oc4ccc(NC(=O)N5CCN(c6ccc(F)cc6)C5=O)cc4F)c3s2)c1` [N-(4-(2-(1-ethyl-1H-imidazol-4-yl)thieno[3,2-b]pyridin-7-yloxy)-3-fluorophenyl)-3-(4-fluorophenyl)-2-oxoimidazolidine-1-carboxamide], the IC50 (as a rule, the point on the concentration scale where inhibition reaches its midpoint) in assay [1] was determined as 80 nM; in assay [2] it was 240 nM.
